Measured values from the NIST ThermoML archive (doi:10.1016/j.fluid.2014.09.014).

Assay: refractive index (other wavelength) (dimensionless); xn = mol fraction of the nth substance listed
Details: 101 kPa, Liquid, Standard Abbe refractometry

CC(C)OC(C)C [diisopropyl ether] + CC(C)O
refractive index
Details | Wavelength=404.7 nm | Wavelength=435.8 nm | Wavelength=486.1 nm | Wavelength=546.1 nm | Wavelength=587.6 nm | Wavelength=589.3 nm | Wavelength=632.8 nm | Wavelength=644 nm | Wavelength=706.5 nm
308.15 K, x1 = 0.0277 | 1.38135 | 1.37835 | 1.37495 | 1.37214 | 1.37065 | 1.37059 | 1.36929 | 1.36899 | 1.36755
308.15 K, x1 = 0.0507 | 1.3813 | 1.3783 | 1.37488 | 1.37207 | 1.37059 | 1.37053 | 1.36924 | 1.36894 | 1.36748
308.15 K, x1 = 0.051 | 1.38124 | 1.37824 | 1.37483 | 1.37202 | 1.37053 | 1.37047 | 1.36917 | 1.36887 | 1.36742
308.15 K, x1 = 0.0717 | 1.38092 | 1.37792 | 1.37451 | 1.3717 | 1.37072 | 1.37014 | 1.36886 | 1.36856 | 1.36711
308.15 K, x1 = 0.1528 | 1.38023 | 1.37724 | 1.37384 | 1.371 | 1.36953 | 1.36947 | 1.3682 | 1.3679 | 1.36646
308.15 K, x1 = 0.1553 | 1.38023 | 1.37724 | 1.37384 | 1.371 | 1.36953 | 1.36947 | 1.3682 | 1.3679 | 1.36646
308.15 K, x1 = 0.1938 | 1.37994 | 1.37695 | 1.37356 | 1.37072 | 1.36925 | 1.36919 | 1.36792 | 1.36761 | 1.36617
308.15 K, x1 = 0.2029 | 1.3793 | 1.37665 | 1.37311 | 1.37028 | 1.3688 | 1.36875 | 1.36748 | 1.36718 | 1.36573
308.15 K, x1 = 0.245 | 1.37901 | 1.37603 | 1.37266 | 1.36984 | 1.36837 | 1.36832 | 1.36706 | 1.36676 | 1.36532
308.15 K, x1 = 0.297 | 1.37832 | 1.37533 | 1.37193 | 1.36911 | 1.36764 | 1.36759 | 1.36631 | 1.36601 | 1.36457
308.15 K, x1 = 0.2973 | 1.37852 | 1.37554 | 1.37215 | 1.36932 | 1.36785 | 1.3678 | 1.36653 | 1.36623 | 1.3648
308.15 K, x1 = 0.3068 | 1.37823 | 1.37525 | 1.3718 | 1.36857 | 1.36754 | 1.36751 | 1.36624 | 1.36594 | 1.36451
308.15 K, x1 = 0.398 | 1.37692 | 1.37394 | 1.37056 | 1.36775 | 1.36628 | 1.36623 | 1.36496 | 1.36466 | 1.36323
308.15 K, x1 = 0.4609 | 1.37625 | 1.37325 | 1.36987 | 1.36707 | 1.3656 | 1.36554 | 1.36427 | 1.36397 | 1.36254
308.15 K, x1 = 0.5434 | 1.37535 | 1.37238 | 1.36896 | 1.3662 | 1.36473 | 1.36467 | 1.36338 | 1.36309 | 1.36168
308.15 K, x1 = 0.6032 | 1.37466 | 1.3717 | 1.3683 | 1.3655 | 1.36404 | 1.36398 | 1.36271 | 1.36241 | 1.361
308.15 K, x1 = 0.6371 | 1.37427 | 1.37131 | 1.36792 | 1.36515 | 1.36369 | 1.36363 | 1.36235 | 1.36205 | 1.36064
308.15 K, x1 = 0.701 | 1.37352 | 1.37059 | 1.36722 | 1.36441 | 1.36297 | 1.36292 | 1.36166 | 1.36135 | 1.35993
308.15 K, x1 = 0.754 | 1.37312 | 1.37017 | 1.36681 | 1.36401 | 1.36256 | 1.36251 | 1.36125 | 1.36096 | 1.35954
308.15 K, x1 = 0.791 | 1.37271 | 1.36974 | 1.36638 | 1.36358 | 1.36215 | 1.36209 | 1.36085 | 1.36054 | 1.35911
308.15 K, x1 = 0.8296 | 1.37234 | 1.36938 | 1.36604 | 1.36323 | 1.36178 | 1.36173 | 1.36048 | 1.36018 | 1.35877
308.15 K, x1 = 0.8864 | 1.37212 | 1.36915 | 1.3658 | 1.363 | 1.36156 | 1.36151 | 1.36026 | 1.35996 | 1.35855
308.15 K, x1 = 0.8903 | 1.37167 | 1.36871 | 1.36535 | 1.36256 | 1.36111 | 1.36106 | 1.35981 | 1.35952 | 1.3581
308.15 K, x1 = 0.9113 | 1.37142 | 1.36847 | 1.36511 | 1.36232 | 1.36088 | 1.36082 | 1.35957 | 1.35928 | 1.35786
308.15 K, x1 = 0.9547 | 1.37095 | 1.36796 | 1.36465 | 1.36187 | 1.36041 | 1.36036 | 1.3591 | 1.3588 | 1.35741
308.15 K, x1 = 0.973 | 1.37062 | 1.36766 | 1.36431 | 1.36152 | 1.36008 | 1.36002 | 1.35877 | 1.35847 | 1.35707
308.15 K, x1 = 0.9771 | 1.37048 | 1.36752 | 1.36417 | 1.36139 | 1.35994 | 1.35989 | 1.35864 | 1.35835 | 1.35694
308.15 K, x1 = 1 | 1.37035 | 1.36739 | 1.36407 | 1.36127 | 1.35975 | 1.35983 | 1.35853 | 1.35823 | 1.35683
313.15 K, x1 = 0.0277 | 1.37904 | 1.37606 | 1.37269 | 1.36987 | 1.3684 | – | – | – | –
313.15 K, x1 = 0.0507 | 1.37898 | 1.376 | 1.37262 | 1.3698 | 1.36833 | – | – | – | –
313.15 K, x1 = 0.051 | 1.37891 | 1.37594 | 1.37256 | 1.36974 | 1.36828 | – | – | – | –
313.15 K, x1 = 0.0717 | 1.37855 | 1.37558 | 1.37221 | 1.36939 | 1.36792 | – | – | – | –
313.15 K, x1 = 0.1528 | 1.37787 | 1.3749 | 1.3715 | 1.36872 | 1.36724 | – | – | – | –
313.15 K, x1 = 0.1553 | 1.37787 | 1.3749 | 1.3715 | 1.36872 | 1.36724 | – | – | – | –
313.15 K, x1 = 0.1938 | 1.37761 | 1.37465 | 1.37126 | 1.36846 | 1.36699 | – | – | – | –
313.15 K, x1 = 0.2029 | 1.37706 | 1.37411 | 1.37068 | 1.36791 | 1.36645 | – | – | – | –
313.15 K, x1 = 0.245 | 1.37653 | 1.37358 | 1.37022 | 1.36743 | 1.36596 | – | – | – | –
313.15 K, x1 = 0.297 | 1.37571 | 1.37276 | 1.36938 | 1.36658 | 1.36512 | – | – | – | –
313.15 K, x1 = 0.2973 | 1.37596 | 1.37298 | 1.36959 | 1.36682 | 1.36535 | – | – | – | –
313.15 K, x1 = 0.3068 | 1.37567 | 1.37271 | 1.36934 | 1.36655 | 1.36509 | – | – | – | –
313.15 K, x1 = 0.398 | 1.37428 | 1.37134 | 1.36798 | 1.3652 | 1.36376 | – | – | – | –
313.15 K, x1 = 0.4609 | 1.37355 | 1.3706 | 1.36724 | 1.36445 | 1.36302 | – | – | – | –
313.15 K, x1 = 0.5434 | 1.37263 | 1.36967 | 1.36633 | 1.36354 | – | – | – | – | –
313.15 K, x1 = 0.6032 | 1.37187 | 1.36891 | 1.36561 | 1.36281 | – | – | – | – | –
313.15 K, x1 = 0.6371 | 1.37152 | 1.36856 | 1.36522 | 1.36243 | – | – | – | – | –
313.15 K, x1 = 0.701 | 1.37074 | 1.36779 | 1.36447 | 1.36168 | – | – | – | – | –
313.15 K, x1 = 0.754 | 1.3703 | 1.36737 | 1.36403 | 1.36126 | – | – | – | – | –
313.15 K, x1 = 0.791 | 1.36988 | 1.36694 | 1.36363 | 1.36084 | – | – | – | – | –
313.15 K, x1 = 0.8296 | 1.36948 | 1.36655 | 1.36322 | 1.36045 | – | – | – | – | –
313.15 K, x1 = 0.8864 | 1.36937 | 1.36643 | 1.36308 | 1.36035 | – | – | – | – | –
313.15 K, x1 = 0.8903 | 1.3688 | 1.36585 | 1.36252 | 1.35976 | – | – | – | – | –
313.15 K, x1 = 0.9113 | 1.36853 | 1.3656 | 1.36228 | 1.35952 | – | – | – | – | –
313.15 K, x1 = 0.9547 | 1.36805 | 1.36513 | 1.3618 | 1.35904 | – | – | – | – | –
313.15 K, x1 = 0.973 | 1.36771 | 1.36481 | 1.36145 | 1.35868 | – | – | – | – | –
313.15 K, x1 = 0.9771 | 1.36756 | 1.36465 | 1.36134 | 1.35856 | – | – | – | – | –
313.15 K, x1 = 1 | 1.3674 | 1.36447 | 1.36119 | 1.35842 | – | – | – | – | –
